≈ marks a conversion by molar mass, not a printed value. Calls of active or inactive are those of the source. The rule behind the calls is not given here.
Legend:
Monilinia laxa [1] = assay: Fungicidal activity against Monilinia laxa isolate MLBO1 assessed as reduction in mycelial growth rate at 25 degC after 4 days; type: functional, organism-based; settings: isolate MLBO1, 96 h
Monilinia laxa [2] = assay: Fungicidal activity against Monilinia laxa isolate MLA1 assessed as reduction in mycelial growth rate at 25 degC after 4 days; type: functional, organism-based; settings: isolate MLA1, 96 h
Monilinia laxa [3] = assay: Fungicidal activity against Monilinia laxa isolate MLAl8 assessed as reduction in mycelial growth rate at 25 degC after 4 days; type: functional, organism-based; settings: isolate MLAl8, 96 h
Monilinia laxa [4] = assay: Fungicidal activity against Monilinia laxa isolate MLK9 assessed as reduction in mycelial growth rate at 1 to 10 ug/ml at 31 degC after 5 days; type: functional, organism-based
Monilinia laxa [5] = assay: Fungicidal activity against Monilinia laxa isolate MLK8 assessed as reduction in mycelial growth rate at 1 to 10 ug/ml at 31 degC after 5 days; type: functional, organism-based
Monilinia laxa [6] = assay: Fungicidal activity against Monilinia laxa isolate MLK7 assessed as reduction in mycelial growth rate at 1 to 10 ug/ml at 31 degC after 5 days; type: functional, organism-based
Monilinia laxa [7] = assay: Fungicidal activity against Monilinia laxa isolate MLK4 assessed as reduction in mycelial growth rate at 1 to 10 ug/ml at 31 degC after 5 days; type: functional, organism-based
Monilinia laxa [8] = assay: Fungicidal activity against Monilinia laxa isolate MLG7 assessed as reduction in mycelial growth rate at 1 to 10 ug/ml at 31 degC after 5 days; type: functional, organism-based
Monilinia laxa [9] = assay: Fungicidal activity against Monilinia laxa isolate MLG6 assessed as reduction in mycelial growth rate at 1 to 10 ug/ml at 31 degC after 5 days; type: functional, organism-based
Monilinia laxa [10] = assay: Fungicidal activity against Monilinia laxa isolate MLC4 assessed as reduction in mycelial growth rate at 1 to 10 ug/ml at 31 degC after 5 days; type: functional, organism-based
Monilinia laxa [11] = assay: Fungicidal activity against Monilinia laxa isolate MLC3 assessed as reduction in mycelial growth rate at 1 to 10 ug/ml at 31 degC after 5 days; type: functional, organism-based
Monilinia laxa [12] = assay: Fungicidal activity against Monilinia laxa isolate MLBO7 assessed as reduction in mycelial growth rate at 1 to 10 ug/ml at 31 degC after 5 days; type: functional, organism-based
Monilinia laxa [13] = assay: Fungicidal activity against Monilinia laxa isolate MLP4 assessed as mean number of conidia produced in the colony at 25 degC after 12 days by haemocytometer; type: functional
Monilinia laxa [14] = assay: Fungicidal activity against Monilinia laxa isolate MLX1 assessed as mean mycelial colony diameter at 25 degC after 4 days; type: functional
Monilinia laxa [15] = assay: Fungicidal activity against Monilinia laxa isolate MLBO5 assessed as mean mycelial colony diameter at 25 degC after 4 days; type: functional
Monilinia laxa [16] = assay: Fungicidal activity against Monilinia laxa isolate MLBO2 assessed as mean mycelial colony diameter at 25 degC after 4 days; type: functional
Monilinia laxa [17] = assay: Fungicidal activity against Monilinia laxa isolate MLK4 assessed as reduction in mycelial growth rate at 1 to 10 ug/ml at 28 degC after 8 days; type: functional, organism-based
Monilinia laxa [18] = assay: Fungicidal activity against Monilinia laxa isolate MLG6 assessed as reduction in mycelial growth rate at 25 degC after 4 days; type: functional, organism-based; settings: isolate MLG6, 96 h
Monilinia laxa [19] = assay: Fungicidal activity against Monilinia laxa isolate MLG5 assessed as reduction in mycelial growth rate at 25 degC after 4 days; type: functional, organism-based; settings: isolate MLG5, 96 h
Monilinia laxa [20] = assay: Fungicidal activity against Monilinia laxa isolate MLG3 assessed as reduction in mycelial growth rate at 25 degC after 4 days; type: functional, organism-based; settings: isolate MLG3, 96 h
Monilinia laxa [21] = assay: Fungicidal activity against Monilinia laxa isolate MLG2 assessed as reduction in mycelial growth rate at 25 degC after 4 days; type: functional, organism-based; settings: isolate MLG2, 96 h
Monilinia laxa [22] = assay: Fungicidal activity against Monilinia laxa isolate MLC2 assessed as reduction in mycelial growth rate at 1 to 10 ug/ml at 28 degC after 8 days; type: functional, organism-based
Monilinia laxa [23] = assay: Fungicidal activity against Monilinia laxa isolate MLX1 assessed as mycelial growth at 1 ug/ml at 25 degC after 4 days; type: functional
Monilinia laxa [24] = assay: Fungicidal activity against Monilinia laxa isolate MLC3 assessed as reduction in mycelial growth rate at 25 degC after 4 days; type: functional, organism-based; settings: isolate MLC3, 96 h
Monilinia laxa [25] = assay: Fungicidal activity against Monilinia laxa isolate MLC2 assessed as reduction in mycelial growth rate at 25 degC after 4 days; type: functional, organism-based; settings: isolate MLC2, 96 h
Monilinia laxa [26] = assay: Fungicidal activity against Monilinia laxa isolate MLBO7 assessed as reduction in mycelial growth rate at 25 degC after 4 days; type: functional, organism-based; settings: isolate MLBO7, 96 h
Monilinia laxa [27] = assay: Fungicidal activity against Monilinia laxa isolate MLBO4 assessed as reduction in mycelial growth rate at 25 degC after 4 days; type: functional, organism-based; settings: isolate MLBO4, 96 h
Monilinia laxa [28] = assay: Fungicidal activity against Monilinia laxa isolate KX4 assessed as reduction in mycelial growth rate at 1 to 10 ug/ml at 25 to 28 degC; type: functional, organism-based
Monilinia laxa [29] = assay: Fungicidal activity against Monilinia laxa isolate MLX5 assessed as reduction in mycelial growth rate at 1 to 10 ug/ml at 25 to 28 degC; type: functional, organism-based
Monilinia laxa [30] = assay: Fungicidal activity against Monilinia laxa isolate MLBO2 assessed as mycelial growth at 1 ug/ml at 25 degC after 4 days; type: functional
Monilinia laxa [31] = assay: Fungicidal activity against Monilinia laxa isolate MLP4 assessed as reduction in mycelial growth rate at 1 to 10 ug/ml at 31 degC after 5 days; type: functional, organism-based
Monilinia laxa [32] = assay: Fungicidal activity against Monilinia laxa isolate MLP2 assessed as virulence in prune fruits assessed as virulence treated 10 min prior to mycelial inoculation at 24 degC after 10 days relative to isolate MLX1by pathogenicity bioassay; type: functional
Monilinia laxa [33] = assay: Fungicidal activity against Monilinia laxa isolate MLBO5 assessed as virulence in prune fruits assessed as virulence treated 10 min prior to mycelial inoculation at 24 degC after 10 days relative to isolate MLX1by pathogenicity bioassay; type: functional
Monilinia laxa [34] = assay: Fungicidal activity against Monilinia laxa isolate MLG1 in prune fruits assessed as virulence treated 10 min prior to mycelial inoculation at 24 degC after 10 days relative to isolate MLX1by pathogenicity bioassay; type: functional
Monilinia laxa [35] = assay: Fungicidal activity against Monilinia laxa isolate MLBO4 assessed as reduction in mycelial growth rate at 1 to 10 ug/ml at 31 degC after 5 days; type: functional, organism-based
Monilinia laxa [36] = assay: Fungicidal activity against Monilinia laxa isolate MLBO2 assessed as reduction in mycelial growth rate at 1 to 10 ug/ml at 31 degC after 5 days; type: functional, organism-based
Monilinia laxa [37] = assay: Fungicidal activity against Monilinia laxa isolate B1 assessed as reduction in mycelial growth rate at 1 to 10 ug/ml at 31 degC after 5 days; type: functional, organism-based
Monilinia laxa [38] = assay: Fungicidal activity against Monilinia laxa isolate MLX5 assessed as reduction in mycelial growth rate at 1 to 10 ug/ml at 31 degC after 5 days; type: functional, organism-based
Monilinia laxa [39] = assay: Fungicidal activity against Monilinia laxa isolate MLNS2 assessed as reduction in mycelial growth rate at 25 degC after 4 days; type: functional, organism-based; settings: isolate MLNS2, 96 h
Monilinia laxa [40] = assay: Fungicidal activity against Monilinia laxa isolate MLX3 assessed as reduction in mycelial growth rate at 25 degC after 4 days; type: functional, organism-based; settings: isolate MLX3, 96 h
Monilinia laxa [41] = assay: Fungicidal activity against Monilinia laxa isolate MLX1 assessed as reduction in mycelial growth rate at 25 degC after 4 days; type: functional, organism-based; settings: isolate MLX1, 96 h
Monilinia laxa [42] = assay: Fungicidal activity against Monilinia laxa isolate MLP2 assessed as reduction in mycelial growth rate at 25 degC after 4 days; type: functional, organism-based; settings: isolate MLP2, 96 h

COC(=O)Nc1nc2ccccc2[nH]1 [CARBENDAZIM]
EC50 (Monilinia laxa [1]): 0.11 µg/mL (≈ 0.575 µM) | EC50 (Monilinia laxa [2]): 0.06 µg/mL (≈ 0.314 µM) | EC50 (Monilinia laxa [3]): > 50 µg/mL | inhibition (Monilinia laxa [4]): Active | inhibition (Monilinia laxa [5]): Active | inhibition (Monilinia laxa [6]): Active | inhibition (Monilinia laxa [7]): Active | inhibition (Monilinia laxa [8]): Active | inhibition (Monilinia laxa [9]): Active | inhibition (Monilinia laxa [10]): Active | inhibition (Monilinia laxa [11]): Active | inhibition (Monilinia laxa [12]): Active | Activity (Monilinia laxa [13]): 3.98 /cm2 | Activity (Monilinia laxa [14]): 31.25 mm | Activity (Monilinia laxa [15]): 29.5 mm | Activity (Monilinia laxa [16]): 30.2 mm | inhibition (Monilinia laxa [17]): inactive | EC50 (Monilinia laxa [18]): 0.12 µg/mL (≈ 0.628 µM) | EC50 (Monilinia laxa [19]): 0.09 µg/mL (≈ 0.471 µM) | EC50 (Monilinia laxa [20]): 0.08 µg/mL (≈ 0.418 µM) | EC50 (Monilinia laxa [21]): 0.08 µg/mL (≈ 0.418 µM) | inhibition (Monilinia laxa [22]): inactive | Activity (Monilinia laxa [23]): 100% | EC50 (Monilinia laxa [24]): > 50 µg/mL | EC50 (Monilinia laxa [25]): > 50 µg/mL | EC50 (Monilinia laxa [26]): 0.1 µg/mL (≈ 0.523 µM) | EC50 (Monilinia laxa [27]): 0.05 µg/mL (≈ 0.262 µM) | inhibition (Monilinia laxa [28]): inactive | inhibition (Monilinia laxa [29]): inactive | Activity (Monilinia laxa [30]): 0% | inhibition (Monilinia laxa [31]): Active | Activity (Monilinia laxa [32]): 87.37% | Activity (Monilinia laxa [33]): 100% | Activity (Monilinia laxa [34]): 100% | inhibition (Monilinia laxa [35]): Active | inhibition (Monilinia laxa [36]): Active | inhibition (Monilinia laxa [37]): Active | inhibition (Monilinia laxa [38]): Active | EC50 (Monilinia laxa [39]): > 50 µg/mL | EC50 (Monilinia laxa [40]): > 50 µg/mL | EC50 (Monilinia laxa [41]): > 50 µg/mL | EC50 (Monilinia laxa [42]): 0.06 µg/mL (≈ 0.314 µM)
